Assay results taken from ChEMBL document CHEMBL1201862, “PubChem BioAssay data set” (2004).
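Step 1: Grow cells in 96-well plates. Step 2: Expose to compound for 48 hours at 5 concentrations. Step 3: Interpolate endpoints linearly; if unreached, use highest concentration. GI50 is the concentration that inhibits growth by half.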 Active and inactive are the calls of the source. No stated cut-off is given here; in the data, active = GI50 up to about 1.1 µM and inactive = higher.

What was measured:
Experiment in all cases: NCI anticancer screen, dose series, 48 h
786-0 = test system: 786-0
A498 = test system: A498
A549 = test system: A549
ACHN = test system: ACHN
CAKI-1 = test system: CAKI-1
CCRF-CEM = test system: CCRF-CEM
COLO 205 = test system: COLO 205
DLD-1 = test system: DLD-1
DMS-114 = test system: DMS-114
DMS-273 = test system: DMS-273
EKVX = test system: EKVX
HCC 2998 = test system: HCC 2998
HCT-116 = test system: HCT-116
HCT-15 = test system: HCT-15
HL-60 = test system: HL-60
HOP-18 = test system: HOP-18
HOP-62 = test system: HOP-62
HOP-92 = test system: HOP-92
HT-29 = test system: HT-29
IGROV-1 = test system: IGROV-1
K562 = test system: K562
KM-20L2 = test system: KM-20L2
KM12 = test system: KM12
LOX IMVI = test system: LOX IMVI
LXFL 529 = test system: LXFL 529
M14 = test system: M14
M19-MEL = test system: M19-MEL
MOLT-4 = test system: MOLT-4
Malme-3M = test system: Malme-3M
NCI-H23 = test system: NCI-H23
NCI-H460 = test system: NCI-H460
NCI-H522 = test system: NCI-H522
OVCAR-3 = test system: OVCAR-3
OVCAR-4 = test system: OVCAR-4
OVCAR-5 = test system: OVCAR-5
OVCAR-8 = test system: OVCAR-8
SF-268 = test system: SF-268
SF-295 = test system: SF-295
SF-539 = test system: SF-539
SK-MEL-28 = test system: SK-MEL-28
SK-MEL-2 = test system: SK-MEL-2
SK-MEL-5 = test system: SK-MEL-5
SK-OV-3 = test system: SK-OV-3
SN12C = test system: SN12C
SNB-19 = test system: SNB-19
SNB-75 = test system: SNB-75
SR = test system: SR
SW-620 = test system: SW-620
TK-10 = test system: TK-10
U-251 = test system: U-251
UACC-257 = test system: UACC-257
UACC-62 = test system: UACC-62
UO-31 = test system: UO-31
XF498 = test system: XF498

In the case of COc1cc(Nc2cnc3cc(N)ccc3n2)cc(OC)c1OC, the GI50 (786-0) is reported as > 100 µM (inactive), the GI50 (A498) is reported as > 100 µM (inactive) and the GI50 (A549) is reported as > 100 µM (inactive). For the same compound, the GI50 (ACHN) was > 100 µM (inactive), the GI50 (CAKI-1) was 83.4 µM (inactive) and the GI50 (CCRF-CEM) was 40.3 µM (inactive). For the same compound, the GI50 (COLO 205) was > 100 µM (inactive), the GI50 (DLD-1) was > 100 µM (inactive) and the GI50 (DMS-114) was 65.8 µM (inactive). For the same compound, the GI50 (DMS-273) was 11.7 µM (inactive), the GI50 (EKVX) was 58.6 µM (inactive) and the GI50 (HCC 2998) was 50.1 µM (inactive). The GI50 (HCT-116) was > 100 µM (inactive), the GI50 (HCT-15) was 55.2 µM and the GI50 (HL-60) was 40.1 µM (inactive). For the same compound, the GI50 (HOP-18) was 51.3 µM (inactive), the GI50 (HOP-62) was 97.7 µM (inactive) and the GI50 (HOP-92) was > 100 µM (inactive). The GI50 (HT-29) was 62.5 µM (inactive), the GI50 (IGROV-1) was > 100 µM (inactive) and the GI50 (K562) was 42.3 µM (inactive). The GI50 (KM-20L2) was > 100 µM (inactive), the GI50 (KM12) was > 100 µM (inactive) and the GI50 (LOX IMVI) was 65.5 µM (inactive). For the same compound, the GI50 (LXFL 529) was 82.4 µM (inactive), the GI50 (M14) was 98.6 µM (inactive) and the GI50 (M19-MEL) was 74.8 µM (inactive). For the same compound, the GI50 (MOLT-4) was 52.2 µM (inactive), the GI50 (Malme-3M) was > 100 µM (inactive) and the GI50 (NCI-H23) was > 100 µM (inactive). For the same compound, the GI50 (NCI-H460) was 34.1 µM (inactive), the GI50 (NCI-H522) was 57.5 µM (inactive) and the GI50 (OVCAR-3) was 53.8 µM (inactive). The GI50 (OVCAR-4) was > 100 µM (inactive), the GI50 (OVCAR-5) was > 100 µM (inactive) and the GI50 (OVCAR-8) was 78.2 µM (inactive). For the same compound, the GI50 (SF-268) was > 100 µM (inactive), the GI50 (SF-295) was 72.4 µM (inactive) and the GI50 (SF-539) was > 100 µM (inactive). The GI50 (SK-MEL-28) was > 100 µM (inactive), the GI50 (SK-MEL-2) was > 100 µM (inactive) and the GI50 (SK-MEL-5) was 69 µM (inactive). The GI50 (SK-OV-3) was 69.7 µM (inactive), the GI50 (SN12C) was 94.6 µM (inactive) and the GI50 (SNB-19) was > 100 µM (inactive). The GI50 (SNB-75) was > 100 µM (inactive), the GI50 (SR) was 44.1 µM (inactive) and the GI50 (SW-620) was > 100 µM (inactive). The GI50 (TK-10) was > 100 µM (inactive), the GI50 (U-251) was 65.2 µM (inactive) and the GI50 (UACC-257) was > 100 µM (inactive). For the same compound, the GI50 (UACC-62) was 64.4 µM (inactive), the GI50 (UO-31) was 61.2 µM (inactive) and the GI50 (XF498) was 81.5 µM (inactive).
